The source of these data is patent US12509429B2, “Hydroxybenzamide derivatives and methods of use in treating diabetes” (THE BOARD OF REGENTS OF THE UNIVERSITY OF OKLAHOMA, priority 2022, dated 2025).

In general, EC50 refers to the midpoint of the concentration-response curve.

Like-named read-outs stand apart in the source and are kept apart here.

The test system of series [1] is INS-1 cells. The series is described as follows: Cell viability assay: protection of INS-1 cells from tunicamycin (Tm)-induced loss of viability (CellTiter-Glo, intracellular ATP). Particulars: for Emax / EC50: Rattus norvegicus; for Emax: % rescue from Tm (0.15 μg/mL)-induced reduction of INS-1 cell viability (intracellular ATP), Tm alone 0%, DMSO without Tm 100%, 72 h, read-out: Maximum % of Protection; for EC50: INS-1 cell viability, Tm 0.15 μg/mL, ten 2-fold serial titration points, GraphPad Prism. The format is cell-based, rat. As for the experimental part:
INS-1 cells were resuspended in RPMI 1640 medium containing 10% FBS and seeded at 5×10^3 cells/well in a 384-well plate. After overnight 24 h incubation, compounds were added to the wells at the indicated concentration using a pin-transfer robot (PerkinElmer). Tm in RPMI 1640 medium containing 10% FBS was then added at a final concentration of 0.15 μg/mL. After 72 h, the medium was removed and 20 μL of CellTiter-Glo reagent (Promega) was added. Luminescence was measured 10 min later using a Synergy Neo2 plate reader (Biotek).
Hydroxy benzamide (HBA) derivatives were synthesized based on various scaffolds and evaluated for their viability of rat INS-1 β cells in the presence of tunicamycin (Tm), a potent ER stress inducer that inhibits N-linked glycosylation of proteins. The maximum activities and the concentrations that reach half-maximal activity (EC50) of the compounds were evaluated by the degree of increase in viability of INS-1 cells co-treated with the compounds in the presence of Tm compared with Tm treatment alone.
Background: In ATP-based viability assays light output follows the ATP content of the culture.

Series [2] relates to INS-1 cells. The settings on record: earlier work; protection of β-cell survival against ER stress; cited from earlier work.

On to `COc1cccc(NC(=O)NCc2ccc(C(F)(F)F)cc2)c1` [Compound 5b, 1-(3-Methoxyphenyl)-3-(4-(trifluoromethyl)benzyl)urea], for which, in the series on INS-1 cells [1] (INS1), the Emax amounted to 94% and the EC50 is 1.6 µM.
With `COc1cccc(C(=O)NCc2ccc(C(F)(F)F)cc2)c1` [Compound 3j, 3-Methoxy-N-(4-(trifluoromethyl)benzyl)benzamide], in the series with INS-1 cells [1] (INS1), the Emax was 71% and the EC50 was 25 µM.
Turning to `COc1ccc(CNc2ncc(-c3ccc(C(F)(F)F)cc3)[nH]2)cc1` [Compound 2a, N-(4-methoxybenzyl)-5-(4-(trifluoromethyl)phenyl)-1H-imidazol-2-amine], in the series with INS-1 cells [1] (INS1), the Emax was 18% and the EC50 is 0.05 µM.
For `COc1cccc(COc2cccc(C(=O)NCc3ccc(C(F)(F)F)cc3)c2)c1` [Compound 3m, 3-((3-Methoxybenzyl)oxy)-N-(4-(trifluoromethyl)benzyl)benzamide], in that order: 81% and 4.1 µM.
Turning to `O=C(NCc1ccc(C(F)(F)F)cc1)c1cccc(OCC2CCCCC2)c1` [Compound 3k, 3-(Cyclohexylmethoxy)-N-(4-(trifluoromethyl)benzyl)benzamide], in the series with INS-1 cells [1] (INS1), the Emax turned out to be 100% and the half-maximal effective concentration (EC50) came to 0.72 µM.
On to `Cc1ccc(C)c(NC(=O)c2nnn(-c3cccc(Cl)c3C)c2C)c1` [Compound 1, 1-(3-chloro-2-methylphenyl)-N-(2,5-dimethylphenyl)-5-methyl-1H-1,2,3-triazole-4-carboxamide, reference compound], for which the maximal activity in the series with INS-1 cells [2] is given as 87%. In the series with INS-1 cells [1] (INS1), the Emax worked out at 87% and the EC50 stood at 2.8 µM.
`COc1cc(-c2ncc(-c3ccc(C(F)(F)F)cc3)[nH]2)ccc1O` [Compound 1b, 2-Methoxy-4-(5-(4-(trifluoromethyl)phenyl)-1H-imidazol-2-yl)phenol]: in the series with INS-1 cells [1] (INS-1 cells with Tm), the “β-cell protective activity (in words)” value is recorded as “no improvement”. Moreover, in the series on INS-1 cells [1] (INS1), the Emax stood at 7% and the EC50 was found to be 0.26 µM.
`CCc1ccc(C(=O)NCc2cccc(C(F)(F)F)c2)cc1` [Compound 3b, 4-Ethyl-N-(3-(trifluoromethyl)benzyl)benzamide]: the “β-cell protective activity (in words)” value in the series on INS-1 cells [1] (INS-1 cells with Tm) is listed as “poorer β-cell protective activity”. Also, in the series on INS-1 cells [1] (INS1), the Emax is 43% and the half-maximal effective concentration (EC50) amounted to 4.4 µM.
As to `O=C(NCc1ccc(C(F)(F)F)cc1)c1ccc(O)cc1` [Compound 3h, 4-Hydroxy-N-(4-(trifluoromethyl)benzyl)benzamide], in the series on INS-1 cells [1] (INS1), the Emax was determined as 100% and the concentration giving a half-maximal response (EC50) was 0.27 µM.
For `O=C(NCc1cccc(C(F)(F)F)c1)c1cccc(O)c1` [Compound 3c, 3-Hydroxy-N-(3-(trifluoromethyl)benzyl)benzamide], in the series on INS-1 cells [1] (INS1), the Emax was determined as 37% and the EC50 amounted to 9.9 µM.
The matching figures for `O=C(NCc1ccc(C(F)(F)F)cc1)c1cccc(O)c1O` [Compound 3g, 2,3-Dihydroxy-N-(4-(trifluoromethyl)benzyl)benzamide]: 100% and 3.1 µM.
The matching figures for `O=C(NCc1cccc(C(F)(F)F)c1)c1ccc(O)c(O)c1` [Compound 3d, 3,4-Dihydroxy-N-(3-(trifluoromethyl)benzyl)benzamide]: 51% and 20.5 µM.
The matching figures for `CC(C)c1ccc(CNC(=O)c2cccc(O)c2)cc1` [Compound 3o, 3-Hydroxy-N-(4-isopropylbenzyl)benzamide]: 82% and 1.7 µM.
Turning to `COc1cc(CNC(=O)c2cccc(O)c2)ccc1O` [Compound 3s, 3-Hydroxy-N-(4-hydroxy-3-methoxybenzyl)benzamide], in the series on INS-1 cells [1] (INS1), the Emax was 57% and the EC50 was determined as 28.7 µM.
Consider `COc1ccc(-c2ncc(-c3ccc(C(F)(F)F)cc3)[nH]2)cc1` [Compound 1c, 2-(4-Methoxyphenyl)-5-(4-(trifluoromethyl)phenyl)-1H-imidazole], for which the “β-cell protective activity (in words)” value in the series with INS-1 cells [1] (INS-1 cells with Tm) is on record as “no improvement”. In the series on INS-1 cells [1] (INS1), the Emax amounted to 17% and the half-maximal effective concentration (EC50) stood at 0.21 µM.
Turning to `Cc1c(Cl)cccc1C(=O)NCc1cccc(C(F)(F)F)c1` [Compound 3a, 3-Chloro-2-methyl-N-(3-(trifluoromethyl)benzyl)benzamide], in the series with INS-1 cells [1] (INS1), the Emax was 83% and the EC50 came out at 10 µM.
The matching figures for `COc1cc(C(=O)NCc2cccc(C(F)(F)F)c2)ccc1O` [Compound 3e, 4-Hydroxy-3-methoxy-N-(3-(trifluoromethyl)benzyl)benzamide]: 100% and 3.1 µM.
In the case of `COc1cc(CNC(=O)c2ccc(O)c(OC)c2)ccc1O` [Compound 3t, 4-Hydroxy-N-(4-hydroxy-3-methoxybenzyl)-3-methoxybenzamide], the “β-cell protective activity (in words)” value in the series with INS-1 cells [1] (INS-1 cells with Tm) is “equally poor β-cell protective activity”. Moreover, in the series on INS-1 cells [1] (INS1), the Emax was determined as 55% and the EC50 was 29.1 µM.
`COc1ccc(CNC(=O)c2cccc(O)c2)cc1` [Compound 3r, 3-Hydroxy-N-(4-methoxybenzyl)benzamide]: in the series with INS-1 cells [1] (INS1), the Emax is 65% and the EC50 is 21.3 µM.
With `COc1ccc(CNc2ncc(-c3ccccc3OC)[nH]2)cc1` [Compound 2b, N-(4-methoxybenzyl)-5-(2-methoxyphenyl)-1H-imidazol-2-amine], the “β-cell protective activity (in words)” value with INS-1 cells [1] (INS-1 cells with Tm) was “reduced the protecting activity”. Moreover, in the series on INS-1 cells [1] (INS1), the Emax was found to be 9% and the half-maximal effective concentration (EC50) stood at 0.021 µM.
Turning to `O=C(NCc1ccc(C(F)(F)F)cc1)c1ccc(O)c(O)c1` [Compound 3f, 3,4-Dihydroxy-N-(4-(trifluoromethyl)benzyl)benzamide], in the series with INS-1 cells [1] (INS1), the Emax was found to be 100% and the EC50 stood at 2.2 µM. The Concentration at which maximal protection is reached in the series on INS-1 cells [1] (text of b115, unit printed as PM, unit of the source corrected) was 10 µM.
As for `O=C(NCc1ccc(C(F)(F)F)cc1)Nc1cccc(O)c1` [Compound 5a, 1-(3-Hydroxyphenyl)-3-(4-(trifluoromethyl)benzyl)urea], in the series with INS-1 cells [1] (INS1), the Emax is 65% and the concentration for a half-maximal effect (EC50) came to 2.6 µM.
On to `O=C(Cc1cccc(O)c1)NCc1ccc(C(F)(F)F)cc1` [Compound 4a, 2-(3-Hydroxyphenyl)-N-(4-(trifluoromethyl)benzyl)acetamide], for which the Emax in the series on INS-1 cells [1] (INS1, 72 h) came to 32%. Moreover, the EC50 with INS-1 cells [1] (INS1) was found to be 3.5 µM.
`O=C(NCc1ccc(C(F)(F)F)cc1)c1cccc(OCC2CCNCC2)c1` [Compound 3l, 3-(Piperidin-4-ylmethoxy)-N-(4-(trifluoromethyl)benzyl)benzamide]: in the series with INS-1 cells [1] (INS1), the Emax was determined as 81% and the 50% effective concentration (EC50) is 2.1 µM.
For `CN(C)c1ccc(CNC(=O)c2cccc(O)c2)cc1` [Compound 3p, N-(4-(Dimethylamino)benzyl)-3-hydroxybenzamide], in that order: 43% and 7.1 µM.
The matching figures for `O=C(NCc1cccc(O)c1)c1cccc(O)c1` [Compound 3q, 3-Hydroxy-N-(3-hydroxybenzyl)benzamide]: 22% and 18.3 µM.
For the compound `Oc1cccc(-c2ncc(-c3ccc(C(F)(F)F)cc3)[nH]2)c1O` [Compound 1a, 3-(5-(4-(Trifluoromethyl)phenyl)-1H-imidazol-2-yl)benzene-1,2-diol], in the series with INS-1 cells [1] (INS-1 cells with Tm), the “Toxicity at rising compound concentration (in words)” value is “became toxic when the compound concentration arose” and the “β-cell protective activity (in words)” value is “some β-cell protective activity at sub-micro molar concentrations”. Further, in the series with INS-1 cells [1] (INS1), the Emax came to 14% and the EC50 is 0.26 µM.
As for `O=C(NCc1ccc(C(F)(F)F)cc1)c1cccc(OCc2cccc(C(F)(F)F)c2)c1` [Compound 3n, N-(4-(Trifluoromethyl)benzyl)-3-((3-(trifluoromethyl)benzyl)oxy)benzamide], the “β-cell protective activity (in words)” value with INS-1 cells [1] (INS-1 cells with Tm) is “markedly diminished activity”. For the same compound, in the series with INS-1 cells [1] (INS1), the Emax was found to be 58% and the EC50 was 6.3 µM.
